From patent publication US20080293647A1, “Combined Use Of Vitamin D Derivatives And Anti-Proliferative Agents For Treating Bladder Cancer” (priority 2004, published 2008)
Several values for one entry are separate records, joined by “and”; a condition that tells them apart may be missing. Equal values may be shown once. Read-outs that look alike come from different tables or passages of the source.

Columns and labels:
[1] = test system: RT4; assay: Inhibition of cell proliferation, RT4 human bladder cancer cells (CyQuant); assay type: cell-based; details: 96-h culture, read-out: Bladder Cancer Cell Lines IC50 (μM) RT4
Protocol: (§1) After an additional 96-h culture, the medium was removed and the plates frozen at −80° C. Cell proliferation was evaluated using CyQuant cell proliferation assay kit from Molecular Probes (Eugene, Oreg.).

[2] = test system: RT112; assay: Inhibition of cell proliferation, RT112 human bladder cancer cells (CyQuant); assay type: cell-based; details: 96-h culture, read-out: Bladder Cancer Cell Lines IC50 (μM) RT112
Protocol: as §1

[3] = test system: 24-hydroxylase (CYP24); assay: Expression of 24-hydroxylase (CYP24) in human bladder cancer cell lines, Real Time RT-PCR; assay type: cell-based; details: 100 nM, 2 h
[4] = Stability/compatibility of epirubicin and calcitriol solution for intravesical instillation (HPLC-UV); assay type: physicochemical
Protocol: Approximately 12 mg of freeze-dried Farimorubicina® powder (approx. 2 mg of epirubicin) were dissolved in water to produce a concentrated stock solution. After vortexing, the concentrated stock was diluted 1:2 using a isotonic saline containing Tween 20 at 0.1% (w/v) to provide Sample B. After further vortexing, Sample B was stored at 4° C. until use. […] The solution was mixed and stored at −20° C. until use. 100 μl of the concentrated stock solution was then taken and diluted with 900 μl of isotonic saline containing Tween 20 0.1% (w/v). After shaking the sample was stored at 4° C. until use. […] Following mixing by vortexing, the sample was stored at 5° C. and analysed using HPLC chromatography after preparation (t=0) and after 2.5 hr (t=150 min). [table]

[5] = combination (calcitriol 50 μg/ml + epirubicin 1 mg/ml), t = 0 min
[6] = combination (calcitriol 50 μg/ml + epirubicin 1 mg/ml), t = 150 min, stored at 5° C.
[7] = single-component solution (epirubicin 1 mg/ml; calcitriol 100 μg/ml), HPLC peak area

C=C1/C(=C\C=C2/CCC[C@]3(C)C([C@H](C)CCCC(C)(C)O)CC[C@@H]23)C[C@@H](O)C[C@@H]1O (some centres unmarked) [1,25-Dihydroxycholecalciferol]
IC50 [1]: 26 µM | IC50 ([1]; Homo sapiens, RT-4, 96 h): 45 µM | IC50 [2]: 28.7 µM | IC50 ([2]; Homo sapiens, RT-112, 96 h): 19 µM | Expression of 24-hydroxylase (CYP24) [3]: up-regulation of CYP24 | Area (230 nm) [4, 5]: 2068192 and 1960823 | Area (254 nm) [4, 5]: 2710511 and 2589663 | Area (230 nm) [4, 6]: 2027619 and 1954501 | Area (254 nm) [4, 6]: 2674857 and 2572268 | Area (230 nm) [4, 7]: 3402919 and 3485146 | Area (254 nm) [4, 7]: 4981173 and 5116113
